According to publication PMC4410182 (Nature communications, 2015):

Columns and labels:
[1] = molecular target: A. borkumensis YdaH transporter (Alcanivorax borkumensis) (UniProt Q0VR69); experiment: SEC
[2] = molecular target: T1, A. borkumensis YdaH (Alcanivorax borkumensis, UniProt Q0VR69); experiment: isothermal titration calorimetry; assay type: binding
T1 sequence (Q0VR69 1-492): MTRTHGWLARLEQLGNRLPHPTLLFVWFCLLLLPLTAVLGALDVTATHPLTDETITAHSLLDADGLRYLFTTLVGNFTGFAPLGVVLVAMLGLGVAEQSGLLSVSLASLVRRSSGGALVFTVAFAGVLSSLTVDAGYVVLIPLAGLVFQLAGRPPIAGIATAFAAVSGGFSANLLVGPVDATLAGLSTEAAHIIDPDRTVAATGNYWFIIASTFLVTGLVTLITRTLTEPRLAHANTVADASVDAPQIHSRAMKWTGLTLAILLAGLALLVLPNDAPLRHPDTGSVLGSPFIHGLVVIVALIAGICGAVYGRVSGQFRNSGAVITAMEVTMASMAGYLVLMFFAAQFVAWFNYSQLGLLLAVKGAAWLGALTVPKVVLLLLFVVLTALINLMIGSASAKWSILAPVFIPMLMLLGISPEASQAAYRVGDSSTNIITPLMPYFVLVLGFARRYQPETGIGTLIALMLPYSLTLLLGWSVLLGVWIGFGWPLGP

| Kd [2] | Compound | stoichiometry N [1] |
| --- | --- | --- |
| – | A. borkumensis YdaH transporter (from UniProt Q0VR69 1-492) (natural protein) | 2 |
| 410 ± 30 nM | Cc1cc(C)nc(NS(=O)(=O)c2ccc(N)cc2)n1 [sulfamethazine] | – |
| 7040 ± 540 nM | Nc1ccc(S(=O)(=O)Nc2ncccn2)cc1 [sulfadiazine] | – |
| 600 ± 20 nM | Nc1ccc(S(=O)(=O)Nc2nccs2)cc1 [sulfathiazole] | – |
